Data taken from PMC5830749, “Bifunctional fluorescent probes for detection of amyloid aggregates and reactive oxygen species” (Royal Society Open Science, 2018).
Where a name gives a salt, the structure may show the parent alone. Read-outs that look alike come from different tables or passages of the source.

Tests used:
[1] = LCMS analysis of the reaction of the dyes with H2O2 in PBS; format: physicochemical; settings: for dye molecules converted into the phenol: 1 hour incubation with 100 µM H2O2, PBS
Experimental: Next, the change in bulk fluorescence emission was assessed upon addition of H2O2 at a concentration realistic for cellular oxidative stress (100 µM). […] Furthermore, the kinetics could be followed, with all fluorescence traces increasing at varying rates in a linear regime over a 5 h period (figure 2c). As the oxidation reaction is predominantly irreversible, these sensors record the total ROS exposure to a system, rather than the equilibrium value. […] These measurements confirmed that the change in fluorescence intensity arose from the conversion of the boronic ester into the hydroxyl functionality. By contrast, no significant change in the chemical composition of the dye solutions occurred over the same time frame without addition of H2O2 (electronic supplementary material, figure S4).
LCMS analysis of the reaction of the dyes with H2O2 was performed using a Waters Acquity H-class UPLC coupled with a single quadrupole Waters SQD2. ACQUITY UPLC CSH C18 Column, 130 Å, 1.7 µm, 2.1 mm × 50 mm was used as the UPLC column. The conditions of the UPLC method are as follows:
Solvent A: Water +0.1% Formic acid; Solvent B: Acetonitrile +0.1% Formic acid; Gradient of 0-4 minutes 5% - 100%B + 1 minute 100% B with re-equilibration time of 2 minutes. Flow rate: 0.6 ml/min; Column temperature of 40 °C; Injection volume of […]. The signal was monitored at 254 nm.
Samples were prepared by diluting the stock solutions of the BE and mBE compounds (prepared as previously described) into PBS (pH 7.4) to a concentration of 30 µM. The diluted dye solutions were analysed via LCMS directly after dilution (t = 0 hour) as well as 1 hour after dilution (t = 1 hour) (Supplementary Table 1). To proof the oxidative cleavage of the boronic esters to a phenol triggered by H2O2, the diluted dye solutions were exposed to 100 µM H2O2 and analysed via LCMS after 1 hour of incubation (Supplementary Table 1).

[2] = Bulk fluorescence response of dyes to H2O2; settings: for increase in bulk fluorescence upon addition of H2O2: 100 µM H2O2, dye 5 µM, PBS pH 7.4, relative to free dye; for gradient of fluorescence intensity versus time curve: dyes incubated with H2O2, recorded over 5 h at 20 min intervals
Experimental: Next, the change in bulk fluorescence emission was assessed upon addition of H2O2 at a concentration realistic for cellular oxidative stress (100 µM) [31]. […] As the oxidation reaction is predominantly irreversible, these sensors record the total ROS exposure to a system, rather than the equilibrium value.

[3] = Bulk photophysical properties of free dyes in PBS; settings: free dye; for Stokes shift (λem − λabs) / brightness (ε × ΦFl) / maximum absorption wavelength (λabs) / maximum emission wavelength (λem) / molar extinction coefficient ε: PBS pH 7.4; for fluorescence quantum yield ΦFl: PBS pH 7.4, relative to a standard
Experimental: Several photophysical quantities were determined from ensemble absorption and emission data, using techniques previously described [38]. These included absorption maxima (λAbs), emission maxima (λEm) Stokes shift, molar extinction coefficient (ε) and fluorescence quantum yield (ΦFl).

H2O2 and αSyn aggregates = H2O2 and αSyn aggregates (Homo sapiens, UniProt P37840); settings: 100 µM H2O2 (60 min) and approx. 10 µM αSyn aggregates, dye 5 µM
αSyn aggregates [4] = target: T1, αSyn aggregates (Homo sapiens, UniProt P37840); experiment: SAVE (TIRF) single-aggregate fluorescence imaging, density of detected aggregates; set-up: made in house; host or cells: Escherichia coli
Experimental: Fluorescence imaging experiments were carried out with a bespoke inverted microscope (Nikon, Eclipse, TE2000-U) set-up optimized for TIRF measurements. […] Images were recorded at 100 ms exposure for 200 frames using automation through Micro-manager software.
Images were analysed with a bespoke ImageJ [41] macro. […] Pixels of intensity above background were determined with a fixed threshold and αSyn aggregate species in each field of view identified and counted. […] Five fields of view in the presence of H2O2 and five in the absence of H2O2 were analysed for each dye. Error bars represent the standard deviations of the species density between the five fields of view.

αSyn aggregates [5] = target: T1, αSyn aggregates; experiment: Limit of detection of oxidized probes by SAVE imaging; settings: first dye concentration deviating from mean background by 3 s.d.
Experimental: To quantify this process, we determined the number of detectable aggregates, before and after addition of H2O2 and assumed constant surface coverage. […] The limit of detection (LOD) of oxidized BE (BE-Ox) and mBE (mBE-Ox) probes to αSyn aggregates was determined using SAVE imaging (electronic supplementary material, figure S8).
Glass cover-slides for SAVE fluorescence imaging were cleaned for 1 h using an argon plasma (PDC-002, Harrick Plasma) and the slide surface incubated with poly-L-lysine (PLK) for 30 min as previously described [13]. […] The working solution (50 µl) was added to the clean, PLK coated cover-slide and incubated for 2 min. The slide was then washed twice with PBS and imaged. H2O2 (100 µM) was then added directly to the cover-slide and the sample imaged again.

αSyn aggregates [6] = target: T1, αSyn aggregates; experiment: Bulk fluorescence response of dyes to preformed αSyn aggregates; set-up: made in house; host or cells: Escherichia coli; settings: approx. 10 µM preformed αSyn aggregates, dye 5 µM, PBS pH 7.4
αSyn aggregates [7] = target: T1, αSyn aggregates; experiment: Surface plasmon resonance equilibrium affinity to immobilized αSyn aggregates; format: binding; set-up: made in house; host or cells: Escherichia coli; settings: SPR, 25°C, before incubation with H2O2
[8] = cited from earlier work
[9] = 30 µM in PBS pH 7.4, 60 minutes with 100 μM H2O2, UV 254 nm
[10] = 30 µM in PBS pH 7.4, time point 0 minutes, no H2O2, UV 254 nm
[11] = 30 µM in PBS pH 7.4, time point 60 minutes, no H2O2, UV 254 nm
[12] = after addition of 100 µM H2O2 (post-oxidation)
[13] = before addition of H2O2 (pre-oxidized)

For `COc1ccc2nc(-c3ccc(B4OC(C)(C)C(C)(C)O4)cc3)sc2c1` [BE01, 6-methoxy-2-(4-(4,4,5,5-tetramethyl-1,3,2-dioxaborolan-2-yl)phenyl)benzo[d]thiazole], the “Oxidized (phenol derivative) Rel. Area” value [1, 9] was 100%, the “Boronate ester Rel. Area” value [1, 10] was 35% and the “Hydrolyzed (boronic acid derivative) Rel. Area” value (shortened to “Hydrolyzed”) [1, 10] was 65%. The “Boronate ester Rel. Area” value [1, 11] was 53%, the “Hydrolyzed” value [1, 11] was 47% and the “dye molecules converted into the phenol” value [1] was 100%. For the same compound, the H2O2 concentration detected ([2]; 5 µM dye, 5 h incubation with 0-100 µM H2O2) was “greater than 1 µM”, the “increase in bulk fluorescence upon addition of H2O2” value (“increase … of H2O2” below) [2] was 2.0 fold and the “gradient of fluorescence intensity versus time curve” value [2] was 0.112 ± 0.002 min⁻¹. The “Stokes shift (λem − λabs)” value [3] was 86 nm, the “brightness (ε × ΦFl)” value [3] was 384 M⁻¹ cm⁻¹ and the “maximum absorption wavelength (λabs)” value [3] was 330 nm. The “maximum emission wavelength (λem)” value [3] was 416 nm, the “molar extinction coefficient ε” value [3] was 6400 M⁻¹ cm⁻¹ and the “fluorescence quantum yield ΦFl” value [3] was 0.06.

In the case of `COc1ccc2nc(-c3ccc(B4OCC(C)(C)CO4)cc3)sc2c1` [BE02, 2-(4-(5,5-dimethyl-1,3,2-dioxaborinan-2-yl)phenyl)-6-methoxybenzo[d]thiazole], the “Hydrolyzed” value [1, 9] is reported as 10%, the “Oxidized (phenol derivative) Rel. Area” value [1, 9] is reported as 90% and the “Hydrolyzed” value [1, 10] is reported as 100%. For the same compound, the “Hydrolyzed” value [1, 11] was 100%, the “dye molecules converted into the phenol” value [1] was 90% and the “gradient of fluorescence intensity versus time curve” value [2] was 0.017 min⁻¹. For the same compound, the “Stokes shift (λem − λabs)” value [3] was 82 nm, the “brightness (ε × ΦFl)” value [3] was 168 M⁻¹ cm⁻¹ and the “maximum absorption wavelength (λabs)” value [3] was 330 nm. For the same compound, the “maximum emission wavelength (λem)” value [3] was 412 nm, the “molar extinction coefficient ε” value [3] was 4200 M⁻¹ cm⁻¹ and the “fluorescence quantum yield ΦFl” value [3] was 0.04.

With `Cc1ccc2c(c1)sc(-c1ccc(N(C)C)cc1)[n+]2C` [ThT, thioflavin t, reference compound] the “'compounded' increase in fluorescence with H2O2 and αSyn aggregates together” value (from here on “'compounded' increase in fluorescence”) (H2O2 and αSyn aggregates) was “no change in fluorescence”, the “increase … of H2O2” value [2] was “no change” and the “density of single αSyn aggregate species detected” value (“density” below) (αSyn aggregates [4]; [12]) was 0.026 ± 002 aggregates/µm^2. For the same compound, the “density” value (αSyn aggregates [4]; [13]) was 0.025 ± 0.004 aggregates/µm^2, the “brightness (ε × ΦFl)” value [3] was 15 M⁻¹ cm⁻¹ and the “maximum absorption wavelength (λabs)” value [3] was 412 nm. The “maximum emission wavelength (λem)” value [3] was 486 nm, the “molar extinction coefficient ε” value [3] was 37 500 M^−1 cm^−1 and the “fluorescence quantum yield ΦFl” value [3] was 0.00. The “limit of detection (LOD) to αSyn aggregates” value (αSyn aggregates [5]) was 2.40 ± 0.64 µM.

With `COc1ccc2c(c1)sc(-c1ccc(B3OC(C)(C)C(C)(C)O3)cc1)[n+]2C.F[B-](F)(F)F` [mBE01, 6-Methoxy-3-methyl-2-(4-(4,4,5,5-tetramethyl-1,3,2-dioxaborolan-2-yl)phenyl)benzo[d]thiazol-3-ium tetrafluoroborate] the “Hydrolyzed” value [1, 9] was 27%, the “Oxidized (phenol derivative) Rel. Area” value [1, 9] was 64% and the “Oxidized, de-methylated Rel. Area” value [1, 9] was 9.47%. For the same compound, the “Hydrolyzed” value [1, 10] was 100%, the “Hydrolyzed” value [1, 11] was 100% and the “dye molecules converted into the phenol” value [1] was 73%. The “'compounded' increase in fluorescence” value (H2O2 and αSyn aggregates) was “no additional change in fluorescence”, the “increase … of H2O2” value [2] was 16.0 fold and the “gradient of fluorescence intensity versus time curve” value [2] was 0.011 min⁻¹. For the same compound, the “increase in fluorescence intensity upon addition of αSyn aggregates” value (αSyn aggregates [6]) was 7.1 fold, the Kd (αSyn aggregates [7]) was 35.2 ± 5.7 µM and the “density” value (αSyn aggregates [4]; [12]) was 0.0051 ± 0.0004 aggregates/µm^2. For the same compound, the “density” value (αSyn aggregates [4]; [13]) was 0.0040 ± 0.0004 aggregates/µm^2, the “Stokes shift (λem − λabs)” value [3] was 87 nm and the “brightness (ε × ΦFl)” value [3] was 168 M⁻¹ cm⁻¹. The “maximum absorption wavelength (λabs)” value [3] was 330 nm, the “maximum emission wavelength (λem)” value [3] was 417 nm and the “molar extinction coefficient ε” value [3] was 16 800 M^−1 cm^−1. The “fluorescence quantum yield ΦFl” value [3] was 0.01.

For `COc1ccc2c(c1)sc(-c1ccc(B3OCC(C)(C)CO3)cc1)[n+]2C.F[B-](F)(F)F` [mBE02, 2-(4-(5,5-Dimethyl-1,3,2-dioxaborinan-2-yl)phenyl)-6-methoxy-3-methylbenzo[d]thiazol-3-ium tetrafluoroborate], the “Hydrolyzed” value [1, 9] was 12%, the “Oxidized (phenol derivative) Rel. Area” value [1, 9] was 70% and the “Oxidized, de-methylated Rel. Area” value [1, 9] was 18.63%. For the same compound, the “Hydrolyzed” value [1, 10] was 100%, the “Hydrolyzed” value [1, 11] was 100% and the “dye molecules converted into the phenol” value [1] was 88%. For the same compound, the “'compounded' increase in fluorescence” value (H2O2 and αSyn aggregates) was “no additional change in fluorescence”, the “increase … of H2O2” value [2] was 3.6 fold and the “gradient of fluorescence intensity versus time curve” value [2] was 0.015 min⁻¹. For the same compound, the “increase in fluorescence intensity upon addition of αSyn aggregates” value (αSyn aggregates [6]) was 3.8 fold, the Kd (αSyn aggregates [7]) was 33.5 ± 3.9 µM and the “density” value (αSyn aggregates [4]; [12]) was 0.0060 ± 0.0005 aggregates/µm^2. The “density” value (αSyn aggregates [4]; [13]) was 0.006 ± 0.001 aggregates/µm^2, the “Stokes shift (λem − λabs)” value [3] was 87 nm and the “brightness (ε × ΦFl)” value [3] was 148 M⁻¹ cm⁻¹. For the same compound, the “maximum absorption wavelength (λabs)” value [3] was 330 nm, the “maximum emission wavelength (λem)” value [3] was 417 nm and the “molar extinction coefficient ε” value [3] was 14 800 M^−1 cm^−1. For the same compound, the “fluorescence quantum yield ΦFl” value [3] was 0.01.

In the case of `C=C[C@H]1C[N@@]2CC[C@H]1C[C@H]2[C@H](O)c1ccnc2ccc(OC)cc12` [quinine sulfate], the “ΦFl of reference standard” value ([8]; in 0.1 M H2SO4) is listed as 0.5.

In the case of `O=C(O)c1ccccc1C1=c2cc3c4c(c2Oc2c1cc1c5c2CCCN5CCC1)CCC[N+]=4CCC3.[Cl-]` [rhodamine 101], the “ΦFl of reference standard” value ([8]; in ethanol) is given as 1.
